# Measurements reported in publication PMC5682201 (European journal of medicinal chemistry, 2017).
# Legend:
# Assay type in all cases: cell-based
# [1] = system: L. major Amastigotes; assay: Leishmania major amastigote assay; details: read-out: L. major Amastigotes EC50; Table 4; r^2 values >0.75
# [2] = system: NIH 3T3; assay: NIH 3T3 toxicity; details: Table 4
# [3] = system: HepG2; assay: HepG2 toxicity; details: Table 4
substance,measurement,setting,value
"6-(3-morpholinophenyl)-N-(1,2,4-triazin-3-yl)quinazolin-4-amine [9d]",EC50,[1],> 15 µM
same,NIH 3T3 TC50,[2],>50 µM
same,HepG2 TC50,[3],>20 µM
